Test results: ChEMBL document CHEMBL1157629, “Acetylcholinesterase inhibitors from the toadstool Cortinarius infractus” (Bioorg Med Chem, 2010)
Calls of active or inactive are those of the source. The rule behind the calls is not given here.

Key:
[1] = target: Cholinesterase (Equus caballus) (UniProt P81908); assay: Inhibition of equine serum BChE at 100 uM by Ellman's method
[2] = Inhibition of amyloid beta (1-40) self-aggregation at 25 uM by thioflavin T fluorescence assay
[3] = test system: SH-SY5Y; assay: Cytotoxicity against human SH-SY5Y cells assessed as LDH release at 10 uM after 24 hrs; type: cell-based
[4] = test system: SH-SY5Y; assay: Cytotoxicity against human SH-SY5Y cells assessed as LDH release at 100 uM after 24 hrs; type: cell-based
[5] = test system: HepG2; assay: Cytotoxicity against human HepG2 cells assessed as LDH release at 10 uM after 24 hrs; type: cell-based; conditions: hepg2, 24 h
[6] = test system: HepG2; assay: Cytotoxicity against human HepG2 cells assessed as LDH release at 100 uM after 24 hrs; type: cell-based; conditions: hepg2, 24 h
[7] = Cytotoxicity against human SH-SY5Y cells assessed as cell viability at 10 uM after 24 hrs; type: cell-based; conditions: read-out: Activity
[8] = Cytotoxicity against human SH-SY5Y cells assessed as cell viability at 100 uM after 24 hrs; type: cell-based; conditions: read-out: Activity
[9] = Cytotoxicity against human HepG2 cells assessed as cell viability at 10 uM after 24 hrs; type: cell-based; conditions: read-out: Activity
[10] = Cytotoxicity against human HepG2 cells assessed as cell viability at 100 uM after 24 hrs; type: cell-based; conditions: read-out: Activity
[11] = target: T1, Acetylcholinesterase (Bos taurus, UniProt P23795)
T1 sequence (P23795 whole entry): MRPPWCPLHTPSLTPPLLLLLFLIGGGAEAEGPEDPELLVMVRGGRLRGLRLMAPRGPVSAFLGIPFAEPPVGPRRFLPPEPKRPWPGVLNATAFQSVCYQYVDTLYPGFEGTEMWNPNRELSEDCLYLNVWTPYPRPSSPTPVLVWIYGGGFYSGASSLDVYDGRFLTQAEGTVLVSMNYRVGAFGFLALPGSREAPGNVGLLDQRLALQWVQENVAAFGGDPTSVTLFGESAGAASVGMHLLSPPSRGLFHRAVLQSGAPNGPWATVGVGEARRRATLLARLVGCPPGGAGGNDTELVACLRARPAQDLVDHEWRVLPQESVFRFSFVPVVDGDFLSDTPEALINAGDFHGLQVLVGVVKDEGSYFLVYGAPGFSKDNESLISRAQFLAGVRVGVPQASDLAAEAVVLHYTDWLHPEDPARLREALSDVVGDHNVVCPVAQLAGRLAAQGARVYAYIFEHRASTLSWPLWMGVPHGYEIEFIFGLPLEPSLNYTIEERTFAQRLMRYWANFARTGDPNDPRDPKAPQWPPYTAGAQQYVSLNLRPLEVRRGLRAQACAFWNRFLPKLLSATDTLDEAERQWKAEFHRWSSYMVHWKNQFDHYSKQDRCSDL
Description: Inhibition of bovine AChE by Elman's method

Cholinesterase (Equus caballus), sequence (P81908 whole entry): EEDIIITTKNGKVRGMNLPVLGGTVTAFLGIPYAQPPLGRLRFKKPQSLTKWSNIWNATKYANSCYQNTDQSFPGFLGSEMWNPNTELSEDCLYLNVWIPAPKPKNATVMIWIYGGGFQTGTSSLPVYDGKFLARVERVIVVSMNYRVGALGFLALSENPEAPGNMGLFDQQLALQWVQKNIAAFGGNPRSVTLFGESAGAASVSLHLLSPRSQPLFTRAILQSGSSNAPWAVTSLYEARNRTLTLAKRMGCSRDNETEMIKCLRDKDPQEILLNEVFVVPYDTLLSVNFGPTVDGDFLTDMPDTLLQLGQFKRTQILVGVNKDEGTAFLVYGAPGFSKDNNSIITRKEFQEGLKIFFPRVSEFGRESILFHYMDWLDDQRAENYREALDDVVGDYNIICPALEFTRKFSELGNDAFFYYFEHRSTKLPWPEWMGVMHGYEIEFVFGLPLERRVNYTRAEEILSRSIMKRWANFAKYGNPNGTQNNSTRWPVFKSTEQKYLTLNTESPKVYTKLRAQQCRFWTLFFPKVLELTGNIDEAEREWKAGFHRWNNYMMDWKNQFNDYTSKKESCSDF

Row | SMILES | inhibition [1] | inhibition [2] | Activity [3] | Activity [4] | Activity [5] | Activity [6] | viability at 24 h, 10 µM [7] | viability at 24 h, 100 µM [8] | viability at 24 h, 10 µM [9] | viability at 24 h, 100 µM [10] | IC50 [11]
1 | O=c1cc2c3c4c(cc[n+]3CCC2)c2ccccc2n14.[Cl-] [INFRACTOPICRIN] | inactive | 50% | -0.07% | 1.33% | 2.23% | 1.48% | 97.1% | 97.7% | 100% | 99.1% | 9.72 µM
2 | O=c1cc2c3c4c(cc[n+]3CCC2)c2cc(O)ccc2n14.[Cl-] | inactive | Active | -1.86% | 0.97% | 0.13% | 0.56% | 96.7% | 98.3% | 98.7% | 101% | 12.7 µM
